Read-outs that look alike come from different tables or passages of the source.
Key:
pNL4-3 WT = test: Antiviral activity against pNL4-3 WT strain in MT4 cells (p24 estimation); assay type: cell-based, HIV-1; conditions: Human immunodeficiency virus 1, MT4, 96 h, read-out: pNL4-3 WT IC50
Experimental: (§1) MT4 cells were Transfected with HIV-1 Plasmid (pNL4-3-WT & V7A) (Cells were incubating with required number of TCID50 of HIV-1 for 1.5 h at 37° C.). After infection, the infected cells were plated at the concentration of 3×10^4 cells per well in 96 well plate. Test compound was added to the test plate in defined format with the final concentration of DMSO is not more than 1%. Incubation was carried out in CO2 incubator for 4 days for viral infection. At the end of incubation period an aliquot from each well was taken for p24 estimation. p24 estimation was carried out using Advance biosciences kit as per the procedure detailed by supplier.

pNL4-3 V7A = test: Antiviral activity against pNL4-3 V7A strain in MT4 cells (p24 estimation); assay type: cell-based, HIV-1; conditions: Human immunodeficiency virus 1, MT4, 96 h, read-out: pNL4-3 V7A IC50
Experimental: as §1

HIV-1 strain 92HT599 = test: Antiviral activity against HIV-1 strain 92HT599 in MT2 cells (p24 estimation); assay type: cell-based
Experimental: MT2 cells were infected with HIV-1 strain 92HT599 (10 TCID 50/30000 cells). The infected cells were plated at the concentration of ˜30,000 cells per well in 96 well plate. Test compound was added to the micro plate in defined format with the final concentration of DMSO (vehicle) is not more than 1%. Incubation was carried out in CO2 incubator for ˜96 hours for viral infection. At the end of incubation period an aliquot from each well was taken for p24 estimation. The quantitation of p24 is an index for antiviral activity of the compound. Percent inhibition was calculated with reference to control values (vehicle controls). p24 estimation was carried out using Advance biosciences kit as per the procedure detailed by supplier.
The IC50 (nM) values are set forth in below Table-1.

[1] = Human immunodeficiency virus 1, HIV-1 strain 92HT599, MT2 cells, ~96 hours, p24, read-out: IC50

Row | Compound | IC50 (pNL4-3 WT) | IC50 (pNL4-3 V7A) | IC50 (HIV-1 strain 92HT599; [1]) | IC50 (HIV-1 strain 92HT599; Human immunodeficiency virus 1, MT2, 96 h)
1 | C=C(C)[C@@H]1CC[C@]2(NC[C@H]([C@@H](C)O)N3CCS(=O)(=O)CC3)CC[C@]3(C)[C@H](CC[C@@H]4[C@@]5(C)CC[C@H](OC(=O)[C@H]6C[C@@H](C(=O)O)C6(C)C)C(C)(C)[C@@H]5CC[C@]43C)[C@@H]12 [Example 15, (1R,3S)-3-((((1R,3aS,5aR,5bR,7aR,9S,11aR,11bR,13aR,13bR)-3a-(((2R,3R)-2-(1,1-dioxidothiomorpholino)-3-hydroxybutyl)amino)-5a,5b,8,8,11a-pentamethyl-1-(prop-1-en-2-yl)icosahydro-1H-cyclopenta[a]chrysen-9-yl)oxy)carbonyl)-2,2-dimethylcyclobutane-1-carboxylic acid] | < 10 nM | 1 to 50 nM | < 10 nM | 
2 | CC1([C@@H]2CC[C@]3(NC[C@H](C(=O)O)N4CCS(=O)(=O)CC4)CC[C@]4(C)[C@H](CC[C@@H]5[C@@]6(C)CC[C@H](OC(=O)[C@H]7C[C@@H](C(=O)O)C7(C)C)C(C)(C)[C@@H]6CC[C@]54C)[C@@H]23)CC1 [Example 16, (1R,3S)-3-((((1R,3aS,5aR,5bR,7aR,9S,11aR,11bR,13aR,13bR)-3a-(((R)-2-carboxy-2-(1,1-dioxidothiomorpholino)ethyl)amino)-5a,5b,8,8,11a-pentamethyl-1-(1-methylcyclopropyl)icosahydro-1H-cyclopenta[a]chrysen-9-yl)oxy)carbonyl)-2,2-dimethylcyclobutane-1-carboxylic acid] | > 50 nM | > 100 nM | 10 to 20 nM | 
3 | C[C@H](O)[C@H](CN[C@]12CC[C@@H](C3(C)CC3)[C@@H]1[C@H]1CC[C@@H]3[C@@]4(C)CC[C@H](OC(=O)[C@H]5C[C@@H](C(=O)O)C5(C)C)C(C)(C)[C@@H]4CC[C@@]3(C)[C@]1(C)CC2)N1CCS(=O)(=O)CC1 [Example 13, (1R,3S)-3-((((1R,3aS,5aR,5bR,7aR,9S,11aR,11bR,13aR,13bR)-3a-(((2S,3S)-2-(1,1-dioxidothiomorpholino)-3-hydroxybutyl)amino)-5a,5b,8,8,11a-pentamethyl-1-(1-methylcyclopropyl)icosahydro-1H-cyclopenta[a]chrysen-9-yl)oxy)carbonyl)-2,2-dimethylcyclobutane-1-carboxylic acid] | < 10 nM | 1 to 50 nM | < 10 nM | 
4 | CC1([C@@H]2CC[C@]3(NC[C@H](CF)N4CCS(=O)(=O)CC4)CC[C@]4(C)[C@H](CC[C@@H]5[C@@]6(C)CC[C@H](OC(=O)[C@H]7C[C@@H](C(=O)O)C7(C)C)C(C)(C)[C@@H]6CC[C@]54C)[C@@H]23)CC1 [Example 10, (1R,3S)-3-((((1R,3aS,5aR,5bR,7aR,9S,11aR,11bR,13aR,13bR)-3a-(((R)-2-(1,1-dioxidothiomorpholino)-3-fluoropropyl)amino)-5a,5b,8,8,11a-pentamethyl-1-(1-methylcyclopropyl)icosahydro-1H-cyclopenta[a]chrysen-9-yl)oxy)carbonyl)-2,2-dimethyl cyclobutane-1-carboxylic acid] | < 10 nM | 1 to 50 nM | < 10 nM | 
5 | CC(C)[C@H](CN[C@]12CC[C@@H](C3(C)CC3)[C@@H]1[C@H]1CC[C@@H]3[C@@]4(C)CC[C@H](OC(=O)[C@H]5C[C@@H](C(=O)O)C5(C)C)C(C)(C)[C@@H]4CC[C@@]3(C)[C@]1(C)CC2)N1CCS(=O)(=O)CC1 [Example 3, (1R,3S)-3-((((1R,3aS,5aR,5bR,7aR,9S,11aR,11bR,13aR,13bR)-3a-(((R)-2-(1,1-dioxidothiomorpholino)-3-methylbutyl)amino)-5a,5b,8,8,11a-pentamethyl-1-(1-methylcyclopropyl)icosahydro-1H-cyclopenta[a]chrysen-9-yl)oxy)carbonyl)-2,2-dimethyl cyclobutane-1-carboxylic acid] | > 50 nM | > 100 nM | > 20 nM | 
6 | C=C(C)[C@@H]1CC[C@]2(NC[C@H]([C@@H](C)O)N3CCS(=O)(=O)CC3)CC[C@]3(C)[C@H](CC[C@@H]4[C@@]5(C)CC[C@H](OC(=O)CC(C)(C)C(=O)O)C(C)(C)[C@@H]5CC[C@]43C)[C@@H]12 [Example 20, 4-(((1R,3aS,5aR,5bR,7aR,9S,11aR,11bR,13aR,13bR)-3a-(((2R,3R)-2-(1,1-dioxidothiomorpholino)-3-hydroxybutyl)amino)-5a,5b,8,8,11a-pentamethyl-1-(prop-1-en-2-yl)icosahydro-1H-cyclopentachrysen-9-yl)oxy)-2,2-dimethyl-4-oxobutanoic acid] | < 10 nM | 1 to 50 nM | < 10 nM | 
7 | C[C@@H](O)[C@@H](CN[C@]12CC[C@@H](C3(C)CC3)[C@@H]1[C@H]1CC[C@@H]3[C@@]4(C)CC[C@H](OC(=O)[C@H]5C[C@@H](C(=O)O)C5(C)C)C(C)(C)[C@@H]4CC[C@@]3(C)[C@]1(C)CC2)N1CCS(=O)(=O)CC1 [Example 7, (1R,3S)-3-((((1R,3aS,5aR,5bR,7aR,9S,11aR,11bR,13aR,13bR)-3a-(((2R,3R)-2-(1,1-dioxidothiomorpholino)-3-hydroxybutyl)amino)-5a,5b,8,8,11a-pentamethyl-1-(1-methylcyclopropyl)icosahydro-1H-cyclopentachrysen-9-yl)oxy)carbonyl)-2,2-dimethylcyclobutane-1-carboxylic acid] | < 10 nM | 1 to 50 nM | < 10 nM | 
8 | CC1([C@@H]2CC[C@]3(NC[C@H](CO)N4CCS(=O)(=O)CC4)CC[C@]4(C)[C@H](CC[C@@H]5[C@@]6(C)CC[C@H](OC(=O)[C@H]7C[C@@H](C(=O)O)C7(C)C)C(C)(C)[C@@H]6CC[C@]54C)[C@@H]23)CC1 [Example 5, (1R,3S)-3-((((1R,3aS,5aR,5bR,7aR,9S,11aR,11bR,13aR,13bR)-3a-(((R)-2-(1,1-dioxidothiomorpholino)-3-hydroxypropyl)amino)-5a,5b,8,8,11a-pentamethyl-1-(1-methylcyclopropyl)icosahydro-1H-cyclopenta[a]chrysen-9-yl)oxy)carbonyl)-2,2-dimethylcyclobutane-1-carboxylic acid] | < 10 nM | 1 to 50 nM | < 10 nM | 
9 | CC(C)[C@@H](CN[C@]12CC[C@@H](C3(C)CC3)[C@@H]1[C@H]1CC[C@@H]3[C@@]4(C)CC[C@H](OC(=O)[C@H]5C[C@@H](C(=O)O)C5(C)C)C(C)(C)[C@@H]4CC[C@@]3(C)[C@]1(C)CC2)N1CCS(=O)(=O)CC1 [Example 6, (1R,3S)-3-((((1R,3aS,5aR,5bR,7aR,9S,11aR,11bR,13aR,13bR)-3a-(((S)-2-(1,1-dioxidothiomorpholino)-3-methylbutyl)amino)-5a,5b,8,8,11a-pentamethyl-1-(1-methylcyclopropyl)icosahydro-1H-cyclopentachrysen-9-yl)oxy)carbonyl)-2,2-dimethylcyclobutane-1-carboxylic acid] | 10 to 50 nM | 1 to 50 nM | < 10 nM | 
10 | COCCOCC(=O)O[C@H](C)[C@@H](CN[C@]12CC[C@@H](C3(C)CC3)[C@@H]1[C@H]1CC[C@@H]3[C@@]4(C)CC[C@H](OC(=O)[C@H]5C[C@@H](C(=O)O)C5(C)C)C(C)(C)[C@@H]4CC[C@@]3(C)[C@]1(C)CC2)N1CCS(=O)(=O)CC1 [Example 17, (1R,3S)-3-((((1R,3aS,5aR,5bR,7aR,9S,11aR,11bR,13aR,13bR)-3a-(((2R,3R)-2-(1,1-dioxidothiomorpholino)-3-(2-(2-methoxyethoxy)acetoxy)butyl)amino)-5a,5b,8,8,11a-pentamethyl-1-(1-methylcyclopropyl)icosahydro-1H-cyclopentachrysen-9-yl)oxy)carbonyl)-2,2-dimethylcyclobutane-1-carboxylic acid] | < 10 nM | 1 to 50 nM | < 10 nM | 
11 | CC1([C@@H]2CC[C@]3(NC[C@H](CO[Si](C)(C)C(C)(C)C)N4CCS(=O)(=O)CC4)CC[C@]4(C)[C@H](CC[C@@H]5[C@@]6(C)CC[C@H](OC(=O)[C@H]7C[C@@H](C(=O)O)C7(C)C)C(C)(C)[C@@H]6CC[C@]54C)[C@@H]23)CC1 [Example 4, (1R,3S)-3-((((1R,3aS,5aR,5bR,7aR,9S,11aR,11bR,13aR,13bR)-3a-(((R)-3-((tert-butyldimethylsilyl)oxy)-2-(1,1-dioxidothiomorpholino)propyl)amino)-5a,5b, 8,8,11a-pentamethyl-1-(1-methylcyclopropyl)icosahydro-1H-cyclopenta[a]chrysen-9-yl)oxy)carbonyl)-2,2-dimethylcyclobutane-1-carboxylic acid] | > 50 nM | > 100 nM |  | 10 to 20 nM
